Laboratory results taken from article PMC7501296, “Rapid and direct control of target protein levels with VHL-recruiting dTAG molecules” (Nature Communications, 2020).
Values joined by “and” are separate entries in the source; they are usually repeats but may differ in a detail not shown here. Equal entries are not always repeated.

What was measured:
Format in all cases: cell-based
[1] = test system: PATU-8902 FKBP12^F36V-KRAS^G12V; KRAS^-/- clone; experiment: Antiproliferation, PATU-8902 FKBP12F36V-KRASG12V; KRAS-/- clone, 2D-monolayer (CellTiter-Glo)
[2] = test system: PATU-8902 LACZ-FKBP12^F36V clone; experiment: Antiproliferation, PATU-8902 LACZ-FKBP12F36V clone, 2D-monolayer (CellTiter-Glo)
Summary of the method: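 Viability of cells grown as 2D-adherent monolayers was determined with the CellTiter-Glo luminescent reagent (Promega). Luminescence signals were read on either an Envision 2104 plate reader (PerkinElmer) or a Fluostar Omega Reader (BMG Labtech), and the resulting data were processed and analyzed in GraphPad PRISM v8 software.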

[3] = target: T1, FKBP12^WT-Nluc (Homo sapiens, UniProt P62942); experiment: FKBP12WT-Nluc dual luciferase assay (293FT); details: 293FT FKBP12WT-Nluc, 24 h
T1 construct: expressed in transfected cells; host or cells: 293FT
Summary of the method: (§1)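 293FT cells expressing FKBP12^WT-Nluc or FKBP12^F36V-Nluc with Fluc were treated with compound for 24 h at 37 °C. Fluc, then Nluc, luminescence was read with Dual-Glo reagents. Values are DMSO-normalised Nluc/Fluc ratios.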

[4] = test system: PATU-8902 FKBP12^F36V-KRAS^G12V; KRAS^-/- clone; experiment: Antiproliferation, PATU-8902 FKBP12F36V-KRASG12V; KRAS-/- clone, 3D-spheroid (CellTiter-Glo); details: FKBP12F36V-KRASG12V, KRAS-/-, 3D-spheroid, replicate values
Summary of the method: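 Viability of cells grown as ultra-low adherent 3D-spheroids was determined with CellTiter-Glo (Promega). Luminescence readings were taken on an Envision 2104 plate reader (PerkinElmer) and a Fluostar Omega Reader (BMG Labtech), and the resulting data were processed in GraphPad PRISM v8 to assess effects on cell proliferation.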

[5] = target: T2, FKBP12^F36V-Nluc (Homo sapiens, UniProt P62942, F37V); experiment: FKBP12F36V-Nluc dual luciferase assay (293FT); details: 293FT FKBP12F36V-Nluc, 24 h
T2 construct: expressed in transfected cells; host or cells: 293FT
Summary of the method: as §1

[6] = log10[compound] (M) -5.69897, replicate values
[7] = log10[compound] (M) -6.19897, replicate values
[8] = log10[compound] (M) -6.69897, replicate values
[9] = log10[compound] (M) -7.19897, replicate values
[10] = log10[compound] (M) -7.69897, replicate values
[11] = log10[compound] (M) -8.19897, replicate values
[12] = log10[compound] (M) -8.69897, replicate values
[13] = log10[compound] (M) -9.19897, replicate values
[14] = log10[compound] (M) -9.69897, replicate values
[15] = log10[compound] (M) -10.199, replicate values
[16] = log10[compound] (M) -5.30103, single replicates
[17] = log10[compound] (M) -5.80103, single replicates
[18] = log10[compound] (M) -6.30103, single replicates
[19] = log10[compound] (M) -6.80103, single replicates
[20] = log10[compound] (M) -7.30103, single replicates
[21] = log10[compound] (M) -7.80103, single replicates
[22] = log10[compound] (M) -8.30103, single replicates
[23] = log10[compound] (M) -8.80103, single replicates
[24] = log10[compound] (M) -9.30103, single replicates
[25] = log10[compound] (M) -9.80103, single replicates

T1 sequence (P62942 2-108 limits assumed): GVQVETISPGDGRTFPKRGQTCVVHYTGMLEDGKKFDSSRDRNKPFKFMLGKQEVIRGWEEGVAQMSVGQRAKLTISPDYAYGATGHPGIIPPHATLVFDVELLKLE
T2 sequence (P62942 2-108 F37V limits assumed): as the sequence (P62942 2-108 limits assumed) above, with F36V counted along it

For `CC[C@H](C(=O)N1CCCC[C@H]1C(=O)O[C@H](CCc1ccc(OC)c(OC)c1)c1ccccc1OCC(=O)NCCCCCCOc1cccc2c1C(=O)N(C1CCC(=O)NC1=O)C2=O)c1cc(OC)c(OC)c(OC)c1` (some centres unmarked) [dTAG-13], the DMSO-normalized antiproliferation [1, 6] was 10.9257 and 6.898 and 8.446 and 8.371, the DMSO-normalized antiproliferation [1, 7] was 11.932 and 10.4461 and 13.2552 and 12.7525 and the DMSO-normalized antiproliferation [1, 8] was 9.655 and 9.596 and 10.3089 and 13.0861. The DMSO-normalized antiproliferation [1, 9] was 15.4438 and 14.4907 and 17.4502 and 15.1305, the DMSO-normalized antiproliferation [1, 10] was 47.914 and 33.2029 and 20.7399 and 31.0479 and the DMSO-normalized antiproliferation [1, 11] was 58.9433 and 77.5971 and 44.7261 and 57.0103. For the same molecule, the DMSO-normalized antiproliferation [1, 12] was 103.967 and 74.9703 and 94.8172 and 78.6857, the DMSO-normalized antiproliferation [1, 13] was 94.4313 and 115.825 and 99.9239 and 85.5403 and the DMSO-normalized antiproliferation [1, 14] was 101.606 and 85.9324 and 94.5986 and 110.248. For the same molecule, the DMSO-normalized antiproliferation [1, 15] was 88.9654 and 100.345 and 66.0988 and 85.3394, the DMSO-normalized antiproliferation [2, 6] was 79.0923 and 75.109 and 80.3774 and 113.638 and the DMSO-normalized antiproliferation [2, 7] was 118.691 and 93.7383 and 99.9076 and 98.4249. For the same molecule, the DMSO-normalized antiproliferation [2, 8] was 98.3156 and 96.4487 and 164.194 and 141.704, the DMSO-normalized antiproliferation [2, 9] was 94.7264 and 123.324 and 123.729 and 139.928 and the DMSO-normalized antiproliferation [2, 10] was 115.53 and 113.276 and 121.811 and 92.6376. The DMSO-normalized antiproliferation [2, 11] was 99.0586 and 98.4337 and 106.76 and 114.872, the DMSO-normalized antiproliferation [2, 12] was 84.0085 and 109.147 and 95.5423 and 106.301 and the DMSO-normalized antiproliferation [2, 13] was 117.815 and 105.751 and 92.5029 and 116.86. For the same molecule, the DMSO-normalized antiproliferation [2, 14] was 127.696 and 110.786 and 93.8321 and 122.663, the DMSO-normalized antiproliferation [2, 15] was 105.1 and 122.023 and 107.287 and 98.2283 and the “DMSO-normalized ratio of Nluc/Fluc signal” value [3, 16] was 68.0018 and 52.1082 and 49.2679 and 67.0893. For the same molecule, the “DMSO-normalized ratio of Nluc/Fluc signal” value [3, 17] was 39.4179 and 40.0508 and 57.6875 and 62.3631, the “DMSO-normalized ratio of Nluc/Fluc signal” value [3, 18] was 61.6189 and 51.8679 and 71.8125 and 45.1167 and the “DMSO-normalized ratio of Nluc/Fluc signal” value [3, 19] was 68.675 and 79.0108 and 77.6288 and 57.0488. The “DMSO-normalized ratio of Nluc/Fluc signal” value [3, 20] was 95.7266 and 46.8613 and 87.0104 and 66.427, the “DMSO-normalized ratio of Nluc/Fluc signal” value [3, 21] was 86.0033 and 61.1842 and 69.3744 and 83.8873 and the “DMSO-normalized ratio of Nluc/Fluc signal” value [3, 22] was 94.8586 and 72.3429 and 122.034 and 94.0336. For the same molecule, the “DMSO-normalized ratio of Nluc/Fluc signal” value [3, 23] was 101.052 and 65.5195 and 71.6364 and 55.6566, the “DMSO-normalized ratio of Nluc/Fluc signal” value [3, 24] was 113.35 and 121.354 and 97.4549 and 93.7336 and the “DMSO-normalized ratio of Nluc/Fluc signal” value [3, 25] was 115.063 and 75.6978 and 95.0976 and 66.8915. The DMSO-normalized antiproliferation ([4]; log10[compound] (M) -5.69897) was 12.7187 and 7.467 and 16.3605 and 9.962, the DMSO-normalized antiproliferation ([4]; log10[compound] (M) -6.19897) was 11.9335 and 12.0003 and 12.0114 and 13.9827 and the DMSO-normalized antiproliferation ([4]; log10[compound] (M) -6.69897) was 14.0106 and 15.4027 and 13.0027 and 15.9484. For the same molecule, the DMSO-normalized antiproliferation ([4]; log10[compound] (M) -7.19897) was 14.0384 and 16.4385 and 16.9619 and 11.7776, the DMSO-normalized antiproliferation ([4]; log10[compound] (M) -7.69897) was 14.9517 and 15.5419 and 18.3931 and 15.5976 and the DMSO-normalized antiproliferation ([4]; log10[compound] (M) -8.19897) was 24.6577 and 23.0874 and 23.2266 and 22.4971. For the same molecule, the DMSO-normalized antiproliferation ([4]; log10[compound] (M) -8.69897) was 42.8837 and 45.8128 and 51.5651 and 55.5467, the DMSO-normalized antiproliferation ([4]; log10[compound] (M) -9.19897) was 69.8747 and 70.4761 and 56.6493 and 74.3184 and the DMSO-normalized antiproliferation ([4]; log10[compound] (M) -9.69897) was 76.2117 and 76.4178 and 69.3902 and 68.6162. The DMSO-normalized antiproliferation ([4]; log10[compound] (M) -10.199) was 73.2492 and 74.079 and 68.7888 and 65.637, the “DMSO-normalized ratio of Nluc/Fluc signal” value [5, 16] was 16.9532 and 13.2908 and 14.9671 and 13.7454 and the “DMSO-normalized ratio of Nluc/Fluc signal” value [5, 17] was 7.24 and 7.457 and 10.3426 and 8.644. The “DMSO-normalized ratio of Nluc/Fluc signal” value [5, 18] was 8.366 and 8.818 and 6.862 and 6.126, the “DMSO-normalized ratio of Nluc/Fluc signal” value [5, 19] was 7.33 and 5.168 and 6.329 and 6.447 and the “DMSO-normalized ratio of Nluc/Fluc signal” value [5, 20] was 10.0232 and 16.06 and 10.9144 and 8.614. The “DMSO-normalized ratio of Nluc/Fluc signal” value [5, 21] was 17.0708 and 14.82 and 12.6407 and 10.0196, the “DMSO-normalized ratio of Nluc/Fluc signal” value [5, 22] was 27.5948 and 22.2337 and 28.8782 and 22.7323 and the “DMSO-normalized ratio of Nluc/Fluc signal” value [5, 23] was 41.1668 and 39.5241 and 40.8834 and 34.8862. The “DMSO-normalized ratio of Nluc/Fluc signal” value [5, 24] was 85.0231 and 74.0396 and 80.0349 and 60.0307 and the “DMSO-normalized ratio of Nluc/Fluc signal” value [5, 25] was 71.5411 and 59.8417 and 77.3242 and 60.4301.
